Measured values as given in BindingDB's records for doi:10.1021/jm000468c (Abbott Laboratories, 2001).

Assay: Inhibitory activity was determined against Neuraminidase A from influenza virus A/Tokyo/3/67

Q: Which IC50 does the source give for `CCN(CC)C(=O)N1C[C@H](N)[C@H](C(=O)O)C1` [4-Amino-1-diethylcarbamoyl-pyrrolidine-3-carboxylic acid] here?
A: 25 µM

Q: For `CC(C)(C)OC(=O)N1C[C@@H](N)[C@@H](C(=O)O)C1` [A-87380], which IC50 is on record?
A: 50 µM

Q: Which IC50 does the source give for `CC(C)N(CCCN)C(=O)N1C[C@H](N)[C@H](C(=O)O)C1` [4-Amino-1-[(3-amino-propyl)-isopropyl-carbamoyl]-pyrrolidine-3-carboxylic acid] here?
A: 46 µM

Q: For `CC(C)N(CCCC(=O)O)C(=O)N1C[C@H](N)[C@H](C(=O)O)C1` [4-Amino-1-[(3-carboxy-propyl)-isopropyl-carbamoyl]-pyrrolidine-3-carboxylic acid], which IC50 is on record?
A: 19 µM

Q: Which IC50 does the source give for `CC(C)N(CCCCC(=O)O)C(=O)N1C[C@H](N)[C@H](C(=O)O)C1` [4-Amino-1-[(4-carboxy-butyl)-isopropyl-carbamoyl]-pyrrolidine-3-carboxylic acid] here?
A: 1.3 µM

Q: With `CCN(C(=O)N1C[C@H](N)[C@H](C(=O)O)C1)C(C)C` [4-Amino-1-(ethyl-isopropyl-carbamoyl)-pyrrolidine-3-carboxylic acid] as the compound, how does the IC50 read?
A: 1.6 µM

Q: Which IC50 does the source give for `CC(C)N(C(=O)N1C[C@H](C(=O)O)[C@H](N=C(N)N)C1)C(C)C` [1-Diisopropylcarbamoyl-4-guanidino-pyrrolidine-3-carboxylic acid] here?
A: 13 µM

Q: With `CCCN(CCC)C(=O)N1C[C@H](N)[C@H](C(=O)O)C1` [4-Amino-1-dipropylcarbamoyl-pyrrolidine-3-carboxylic acid] as the compound, how does the IC50 read?
A: 32 µM

Q: Which IC50 does the source give for `CCC(CC)C(=O)N1C[C@H](N)[C@H](C(=O)O)C1` [4-Amino-1-(2-ethyl-butyryl)-pyrrolidine-3-carboxylic acid] here?
A: 22 µM

Q: With `CC(C)N(CCc1ccccn1)C(=O)N1C[C@H](N)[C@H](C(=O)O)C1` [4-Amino-1-[isopropyl-(2-pyridin-2-yl-ethyl)-carbamoyl]-pyrrolidine-3-carboxylic acid] as the compound, how does the IC50 read?
A: 1.3 µM

Q: Which IC50 does the source give for `CC(C)N(CCCO)C(=O)N1C[C@H](N)[C@H](C(=O)O)C1` [4-Amino-1-[(3-hydroxy-propyl)-isopropyl-carbamoyl]-pyrrolidine-3-carboxylic acid] here?
A: 2.1 µM

Q: For `CC(C)N(CCO)C(=O)N1C[C@H](N)[C@H](C(=O)O)C1` [4-Amino-1-[(2-hydroxy-ethyl)-isopropyl-carbamoyl]-pyrrolidine-3-carboxylic acid], which IC50 is on record?
A: 21 µM

Q: For `CCN(C(=O)N1C[C@@H](C(=O)O)[C@@H](N)[C@@H]1CNC(C)=O)C(C)C` [5-(Acetylamino-methyl)-4-amino-1-(ethyl-isopropyl-carbamoyl)-pyrrolidine-3-carboxylic acid], which IC50 is on record?
A: 7.5 µM

Q: With `CC(C)N(CCCCCO)C(=O)N1C[C@H](N)[C@H](C(=O)O)C1` [4-Amino-1-[(5-hydroxy-pentyl)-isopropyl-carbamoyl]-pyrrolidine-3-carboxylic acid] as the compound, how does the IC50 read?
A: 2 µM

Q: Which IC50 does the source give for `CC(C)N(C(=O)N1C[C@H](N)[C@H](C(=O)O)C1)C(C)C` [4-Amino-1-diisopropylcarbamoyl-pyrrolidine-3-carboxylic acid] here?
A: 4 µM
